One block for each compound: values may come before it.
Legend:
caspase-3 = caspase-3 activity in a breast tumor model; type: cell-based
Protocol: In a breast tumor model, both compound C and topotecan (1 nM) individually increase caspase-3 activity less than two fold over the control. A nearly twelve fold increase in caspase-3 activity is seen with the same amount of compound C at a concentration of about 1 nM topotecan.

melanoma model = assay: growth in a melanoma model; type: cell-based

- increase in caspase-3 activity over the control (caspase-3; compound C alone): less than two
Structure (SMILES): CN[C@@H](C)C(=O)N[C@H](C(=O)N1C[C@@H](NC(=O)CC2CCCCC2)C[C@H]1C(=O)NCCc1ccccc1)C(C)C [compound C]

- increase in caspase-3 activity over the control (caspase-3; topotecan 1 nM alone): less than two
Structure (SMILES): CC[C@@]1(O)C(=O)OCc2c1cc1n(c2=O)Cc2cc3c(CN(C)C)c(O)ccc3nc2-1 [topotecan]

Structure (SMILES): CN[C@@H](C)C(=O)N[C@H](C(=O)N1CCC[C@H]1C(=O)NC(Cc1ccccc1)Cc1ccccc1)C(C)C [compound D]
- growth (melanoma model; compound D 250 nM alone): about 90 % of control

Structure (SMILES): CC[C@@]1(O)C(=O)OCc2c1cc1n(c2=O)Cc2cc3ccccc3nc2-1 [camptothecin, Camptothecin]
- growth (melanoma model; camptothecin 5 nM alone): about 50 % of control

— patent publication US20110251134A1, “COMBINATION OF (A) A DNA TOPOSOMERASE INHIBITOR AND (B) AN IAP INHIBITOR” (priority 2004, published 2011)
